9 compounds from PubChem BioAssay (NCI) can be followed below.

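Each compound was tested at five concentrations against cells in 96-well plates for 48 hours. GI50: concentration for 50% inhibition of growth. The concentration for full growth arrest is given as TGI.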

Test systems include A498 renal; BT-549 breast; EKVX NSCLC; MDA-MB-231 breast; NCI-H460 lung; NCI-H522 lung; SN12C renal; SNB-19 CNS; SNB-75 CNS; U251 CNS.
Common to all, as to assay: growth of human tumour cells (NCI), 48 h

On to `CCOC(=O)c1cnc2c(cnn2CC)c1NN=C(C)C`, for which the GI50 in the assay on A498 renal is 28100 nM; with BT-549 breast, 46.5 µM; with EKVX NSCLC, 20.6 µM; in the assay with MDA-MB-231 breast, 45.1 µM; with NCI-H460 lung it was 57.5 µM; with NCI-H522 lung it was 73.2 µM. Besides, the GI50 in the assay on SN12C renal was 38.2 µM; in the assay on SNB-19 CNS, 32.6 µM; in the assay on SNB-75 CNS, 36.6 µM; with U251 CNS, 35.6 µM. In addition, the TGI in the assay on A498 renal, in the assay with BT-549 breast, in the assay on EKVX NSCLC, in the assay with MDA-MB-231 breast, in the assay on NCI-H460 lung and in the assay on NCI-H522 lung was > 100 µM throughout. Further, the TGI in the assay with SN12C renal, with SNB-19 CNS, in the assay on SNB-75 CNS and with U251 CNS was > 100 µM in each case.
With `C=C1C(=O)O[C@H]2[C@H]1CC(=O)/C(C)=C\CC[C@@]1(C)O[C@@H]21`, the GI50 is 5.55 µg/mL with A498 renal; 3.41 µg/mL in the assay with BT-549 breast; 4 µg/mL in the assay with EKVX NSCLC; 4.58 µg/mL in the assay on MDA-MB-231 breast; 3.83 µg/mL with NCI-H460 lung; 0.411 µg/mL in the assay with NCI-H522 lung. Besides, the GI50 with SN12C renal was 4.17 µg/mL; with SNB-19 CNS, 7.62 µg/mL; in the assay with SNB-75 CNS it was 4.93 µg/mL; in the assay on U251 CNS it was 5.32 µg/mL. In addition, the TGI in the assay with A498 renal was found to be 11.3 µg/mL; in the assay with BT-549 breast, 7 µg/mL; in the assay on EKVX NSCLC it was 8.03 µg/mL; in the assay on MDA-MB-231 breast, 8.82 µg/mL; with NCI-H460 lung it was 8.08 µg/mL; with NCI-H522 lung, 0.957 µg/mL. The TGI in the assay with SN12C renal was 8.4 µg/mL; in the assay with SNB-19 CNS, 16.1 µg/mL; in the assay with SNB-75 CNS it was 9.57 µg/mL; with U251 CNS, 10.9 µg/mL.
Consider `Nc1c(O)c(S(=O)(=O)O)c(O)c2c1C(=O)c1ccccc1C2=O`, for which the GI50 was 2330 nM with A498 renal; 2.78 µM with BT-549 breast; 3.09 µM in the assay with EKVX NSCLC; 5.85 µM in the assay on MDA-MB-231 breast; 2.86 µM with NCI-H460 lung; 2.68 µM with NCI-H522 lung. Besides, the GI50 in the assay on SN12C renal was 3.29 µM; in the assay with SNB-19 CNS, 3.8 µM; in the assay with U251 CNS, 3.09 µM. The TGI is 7.53 µM with A498 renal; 8.94 µM in the assay on BT-549 breast; > 100 µM with EKVX NSCLC; 28.1 µM in the assay on MDA-MB-231 breast; 22 µM in the assay on NCI-H460 lung; 9.17 µM in the assay on NCI-H522 lung. In addition, the TGI in the assay on SN12C renal amounted to 11.6 µM; in the assay with SNB-19 CNS, 52.4 µM; in the assay with U251 CNS it was 11.1 µM.
On to `CC12CCC(O)CC1CCC1C2CCC2(C)C(C3=CC(=O)OC3)CCC12` (centres undefined), for which the GI50 in the assay with A498 renal was 1500 nM; in the assay on BT-549 breast it was 11.2 µM; with MDA-MB-231 breast, 0.636 µM; in the assay on NCI-H460 lung, 0.493 µM; with NCI-H522 lung it was 0.686 µM; with SN12C renal, 53.8 µM. For the same compound, the GI50 with SNB-19 CNS was 14.2 µM; with SNB-75 CNS it was 6.9 µM; with U251 CNS, 2.62 µM. Moreover, the TGI in the assay on A498 renal was 10.4 µM; with BT-549 breast, > 95.3 µM; with MDA-MB-231 breast, 8.49 µM; with NCI-H460 lung, > 100 µM; in the assay on NCI-H522 lung it was 4.44 µM; in the assay on SN12C renal, > 100 µM. Further, the TGI is > 100 µM in the assay on SNB-19 CNS, 21.2 µM in the assay on SNB-75 CNS and 10.1 µM with U251 CNS.
Turning to `c1ccc2c(c1)ccc1c3ccccc3ccc21`, the GI50 with A498 renal is > 50000 nM; in the assay on BT-549 breast, > 50 µM; with MDA-MB-231 breast, > 50 µM; with NCI-H460 lung, > 50 µM; in the assay with NCI-H522 lung, > 50 µM; with SN12C renal, > 50 µM. In addition, the GI50 in the assay on SNB-19 CNS, in the assay with SNB-75 CNS and in the assay with U251 CNS was > 50 µM each time. Further, the TGI in the assay with A498 renal, in the assay on BT-549 breast, in the assay on MDA-MB-231 breast, in the assay with NCI-H460 lung, in the assay on NCI-H522 lung and in the assay on SN12C renal was > 50 µM in each case. For the same compound, the TGI in the assay on SNB-19 CNS, in the assay with SNB-75 CNS and in the assay on U251 CNS was > 50 µM each time.
As for `N#CC(=S)Nc1ccc(F)cc1`, the TGI in the assay on A498 renal was 90.5 µM; in the assay with BT-549 breast, > 100 µM; in the assay with EKVX NSCLC, > 100 µM; in the assay with MDA-MB-231 breast, > 100 µM; in the assay on NCI-H460 lung, > 100 µM; with SN12C renal, > 100 µM. Moreover, the TGI in the assay with SNB-19 CNS, in the assay with SNB-75 CNS and in the assay with U251 CNS was > 100 µM throughout.
For the compound `CS(=O)(=O)CS(=O)CS(=O)CS(=O)CC(NC(=O)CCC(N)C(=O)O)C(=O)O` (centres undefined), the TGI in the assay on BT-549 breast, in the assay on EKVX NSCLC, in the assay with MDA-MB-231 breast, with NCI-H460 lung, in the assay with NCI-H522 lung and with SN12C renal was > 100 µM in each case. In addition, the TGI in the assay on SNB-19 CNS, with SNB-75 CNS and with U251 CNS was > 100 µM each time.
On to `CC(C)(C)n1cc(-c2ccnc(NCCNS(=O)(=O)c3cccc4ccccc34)c2)c(-c2cccc(F)c2)n1`, for which the GI50 is 10.6 µM in the assay with BT-549 breast; 17.2 µM with EKVX NSCLC; 24.2 µM in the assay with MDA-MB-231 breast; 20 µM with NCI-H460 lung; 15.5 µM in the assay with NCI-H522 lung; 13.7 µM in the assay on SN12C renal. The GI50 is 34.9 µM in the assay with SNB-19 CNS and 12.4 µM in the assay with U251 CNS. In addition, the TGI was 26.7 µM with BT-549 breast; > 100 µM with EKVX NSCLC; > 100 µM in the assay on MDA-MB-231 breast; 56.7 µM in the assay with NCI-H460 lung; 44.5 µM with NCI-H522 lung; 29 µM in the assay with SN12C renal. For the same compound, the TGI in the assay on SNB-19 CNS is > 100 µM; in the assay on U251 CNS it was 33.4 µM.
As for `Clc1ccc(Nc2nc3ccccc3c3occc23)cc1`, the GI50 in the assay on BT-549 breast is 8.28 µM; in the assay on EKVX NSCLC, 8.02 µM; in the assay with MDA-MB-231 breast, 9.1 µM; in the assay with NCI-H460 lung it was 13 µM; in the assay on NCI-H522 lung, 9.83 µM; in the assay on SN12C renal, 10.9 µM. The GI50 is 8.78 µM in the assay on SNB-19 CNS and 8.66 µM in the assay with U251 CNS. Further, the TGI turned out to be 15.2 µM in the assay on BT-549 breast; 15.9 µM in the assay with EKVX NSCLC; 24.7 µM in the assay with MDA-MB-231 breast; 35.2 µM in the assay on NCI-H460 lung; 20.3 µM with NCI-H522 lung; 22.6 µM with SN12C renal. In addition, the TGI in the assay on SNB-19 CNS and in the assay with U251 CNS was 16.2 µM in each case.
